Results published in ChEMBL document CHEMBL3885881, “DrugMatrix”.

Species: Rattus norvegicus
Test: DrugMatrix - Regimen: Daily Repeat
Type: toxicity, organism-based, Sprague-Dawley
Parameters: regimen Daily Repeat, gender Male, age 6-8 weeks
Conditions: in vivo, sc, route subcutaneous, […]; for ABSOLUTE BASOPHIL / ABSOLUTE EOSINOPHIL / ABSOLUTE LYMPHOCYTE / ABSOLUTE MONOCYTE / ABSOLUTE SEGMENTED NEUTROPHIL / BASOPHIL / EOSINOPHIL / ERYTHROCYTE COUNT / HEMATOCRIT / HEMOGLOBIN / LEUKOCYTE COUNT / LYMPHOCYTE / MEAN CORPUSCULAR HEMOGLOBIN / MEAN CORPUSCULAR HEMOGLOBIN CONCENTRATION / MEAN CORPUSCULAR VOLUME / MONOCYTE / NEUTROPHIL / NUCLEATED RED BLOOD CELLS / PLATELET COUNT: tissue Blood; for ALANINE AMINOTRANSFERASE / ALBUMIN / ALKALINE PHOSPHATASE / ASPARTATE AMINOTRANSFERASE / BLOOD UREA NITROGEN / CARBON DIOXIDE / CHLORIDE / CHOLESTEROL / CREATINE PHOSPHOKINASE / CREATININE / GLUCOSE / LACTATE DEHYDROGENASE / LIPASE / PHOSPHORUS / POTASSIUM / SODIUM / TOTAL BILIRUBIN / TOTAL PROTEIN / URIC ACID: tissue Plasma
[1] = 15 mg/kg, 72 h, dose level Low, time 3 day
[2] = 15 mg/kg, 120 h, dose level Low, time 5 day
[3] = 750 mg/kg, 72 h, dose level High, time 3 day
[4] = 750 mg/kg, 120 h, dose level High, time 5 day

In the case of `CC=CC(=O)N(CC)c1ccccc1C`, the “ABSOLUTE BASOPHIL” value [1] is reported as 0 CELLS/uL, the “ABSOLUTE EOSINOPHIL” value [1] is reported as 112 CELLS/uL and the “ABSOLUTE LYMPHOCYTE” value [1] is reported as 10089.67 CELLS/uL. For the same molecule, the “ABSOLUTE MONOCYTE” value [1] was 82.33 CELLS/uL, the “ABSOLUTE SEGMENTED NEUTROPHIL” value [1] was 1549.33 CELLS/uL and the BASOPHIL [1] was 0%. For the same molecule, the EOSINOPHIL [1] was 1%, the “ERYTHROCYTE COUNT” value [1] was 5.39 x10E6/uL and the HEMATOCRIT [1] was 34.37%. For the same molecule, the HEMOGLOBIN [1] was 13.8 G/DL, the “LEUKOCYTE COUNT” value [1] was 11.83 x10E3/uL and the LYMPHOCYTE [1] was 86.33%. The “MEAN CORPUSCULAR HEMOGLOBIN” value [1] was 25.63 pg, the “MEAN CORPUSCULAR HEMOGLOBIN CONCENTRATION” value [1] was 40.2 G/DL and the “MEAN CORPUSCULAR VOLUME” value [1] was 63.7 fL. For the same molecule, the MONOCYTE [1] was 0.67%, the NEUTROPHIL [1] was 12% and the “NUCLEATED RED BLOOD CELLS” value [1] was 0.33 /100WBC. The “PLATELET COUNT” value [1] was 1164.67 x10E3/uL, the “ALANINE AMINOTRANSFERASE” value [1] was 60.33 u/L and the ALBUMIN [1] was 4.3 G/DL. The “ALKALINE PHOSPHATASE” value [1] was 309.33 u/L, the “ASPARTATE AMINOTRANSFERASE” value [1] was 90 u/L and the “BLOOD UREA NITROGEN” value [1] was 14.33 mg/dL. The “CARBON DIOXIDE” value [1] was 25.33 mmol/L, the CHLORIDE [1] was 102 MEQ/L and the CHOLESTEROL [1] was 88 mg/dL. For the same molecule, the “CREATINE PHOSPHOKINASE” value [1] was 214.67 u/L, the CREATININE [1] was 0.15 mg/dL and the GLUCOSE [1] was 154.33 mg/dL. For the same molecule, the “LACTATE DEHYDROGENASE” value [1] was 252.33 u/L, the LIPASE [1] was 9 u/L and the PHOSPHORUS [1] was 13.47 mg/dL. The POTASSIUM [1] was 6.79 MEQ/L, the SODIUM [1] was 146.9 MEQ/L and the “TOTAL BILIRUBIN” value [1] was 0.2 mg/dL. The “TOTAL PROTEIN” value [1] was 6 G/DL, the “URIC ACID” value [1] was 1.6 mg/dL and the “ABSOLUTE BASOPHIL” value [2] was 0 CELLS/uL. The “ABSOLUTE EOSINOPHIL” value [2] was 0 CELLS/uL, the “ABSOLUTE LYMPHOCYTE” value [2] was 9506.33 CELLS/uL and the “ABSOLUTE MONOCYTE” value [2] was 133 CELLS/uL. For the same molecule, the “ABSOLUTE SEGMENTED NEUTROPHIL” value [2] was 1294 CELLS/uL, the BASOPHIL [2] was 0% and the EOSINOPHIL [2] was 0%. The “ERYTHROCYTE COUNT” value [2] was 5.45 x10E6/uL, the HEMATOCRIT [2] was 35.03% and the HEMOGLOBIN [2] was 13.53 G/DL. The “LEUKOCYTE COUNT” value [2] was 10.93 x10E3/uL, the LYMPHOCYTE [2] was 87% and the “MEAN CORPUSCULAR HEMOGLOBIN” value [2] was 24.9 pg. For the same molecule, the “MEAN CORPUSCULAR HEMOGLOBIN CONCENTRATION” value [2] was 38.67 G/DL, the “MEAN CORPUSCULAR VOLUME” value [2] was 64.33 fL and the MONOCYTE [2] was 1.33%. The NEUTROPHIL [2] was 11.67%, the “NUCLEATED RED BLOOD CELLS” value [2] was 2 /100WBC and the “PLATELET COUNT” value [2] was 1237.33 x10E3/uL. The “ALANINE AMINOTRANSFERASE” value [2] was 56 u/L, the ALBUMIN [2] was 4.23 G/DL and the “ALKALINE PHOSPHATASE” value [2] was 398.67 u/L. The “ASPARTATE AMINOTRANSFERASE” value [2] was 78 u/L, the “BLOOD UREA NITROGEN” value [2] was 15 mg/dL and the “CARBON DIOXIDE” value [2] was 27 mmol/L. For the same molecule, the CHLORIDE [2] was 102.33 MEQ/L, the CHOLESTEROL [2] was 73.67 mg/dL and the “CREATINE PHOSPHOKINASE” value [2] was 195.33 u/L. The CREATININE [2] was 0.19 mg/dL, the GLUCOSE [2] was 148.33 mg/dL and the “LACTATE DEHYDROGENASE” value [2] was 106 u/L. For the same molecule, the LIPASE [2] was 8.33 u/L, the PHOSPHORUS [2] was 12.73 mg/dL and the POTASSIUM [2] was 6.57 MEQ/L. For the same molecule, the SODIUM [2] was 147 MEQ/L, the “TOTAL BILIRUBIN” value [2] was 0.2 mg/dL and the “TOTAL PROTEIN” value [2] was 6.1 G/DL. The “URIC ACID” value [2] was 1.2 mg/dL, the “ABSOLUTE BASOPHIL” value [3] was 0 CELLS/uL and the “ABSOLUTE EOSINOPHIL” value [3] was 39 CELLS/uL. The “ABSOLUTE LYMPHOCYTE” value [3] was 11981 CELLS/uL, the “ABSOLUTE MONOCYTE” value [3] was 301 CELLS/uL and the “ABSOLUTE SEGMENTED NEUTROPHIL” value [3] was 1579 CELLS/uL. The BASOPHIL [3] was 0%, the EOSINOPHIL [3] was 0.33% and the “ERYTHROCYTE COUNT” value [3] was 5.38 x10E6/uL. The HEMATOCRIT [3] was 34.23%, the HEMOGLOBIN [3] was 13.3 G/DL and the “LEUKOCYTE COUNT” value [3] was 13.9 x10E3/uL. The LYMPHOCYTE [3] was 85.67%, the “MEAN CORPUSCULAR HEMOGLOBIN” value [3] was 24.7 pg and the “MEAN CORPUSCULAR HEMOGLOBIN CONCENTRATION” value [3] was 38.83 G/DL. For the same molecule, the “MEAN CORPUSCULAR VOLUME” value [3] was 63.7 fL, the MONOCYTE [3] was 2.33% and the NEUTROPHIL [3] was 11.67%. For the same molecule, the “NUCLEATED RED BLOOD CELLS” value [3] was 1 /100WBC, the “PLATELET COUNT” value [3] was 1269.67 x10E3/uL and the “ALANINE AMINOTRANSFERASE” value [3] was 53.33 u/L. The ALBUMIN [3] was 3.63 G/DL, the “ALKALINE PHOSPHATASE” value [3] was 412 u/L and the “ASPARTATE AMINOTRANSFERASE” value [3] was 76.33 u/L. The “BLOOD UREA NITROGEN” value [3] was 14.33 mg/dL, the “CARBON DIOXIDE” value [3] was 26 mmol/L and the CHLORIDE [3] was 101.33 MEQ/L. The CHOLESTEROL [3] was 93 mg/dL, the “CREATINE PHOSPHOKINASE” value [3] was 193.67 u/L and the CREATININE [3] was 0.18 mg/dL. For the same molecule, the GLUCOSE [3] was 142.67 mg/dL, the “LACTATE DEHYDROGENASE” value [3] was 154 u/L and the LIPASE [3] was 10.67 u/L. The PHOSPHORUS [3] was 12.17 mg/dL, the POTASSIUM [3] was 6.36 MEQ/L and the SODIUM [3] was 144.1 MEQ/L. The “TOTAL BILIRUBIN” value [3] was 0.17 mg/dL, the “TOTAL PROTEIN” value [3] was 5.57 G/DL and the “URIC ACID” value [3] was 1.23 mg/dL. For the same molecule, the “ABSOLUTE BASOPHIL” value [4] was 0 CELLS/uL, the “ABSOLUTE EOSINOPHIL” value [4] was 100.67 CELLS/uL and the “ABSOLUTE LYMPHOCYTE” value [4] was 12538 CELLS/uL. For the same molecule, the “ABSOLUTE MONOCYTE” value [4] was 97.33 CELLS/uL, the “ABSOLUTE SEGMENTED NEUTROPHIL” value [4] was 1764 CELLS/uL and the BASOPHIL [4] was 0%. For the same molecule, the EOSINOPHIL [4] was 0.67%, the “ERYTHROCYTE COUNT” value [4] was 4.84 x10E6/uL and the HEMATOCRIT [4] was 29.03%. The HEMOGLOBIN [4] was 11.63 G/DL, the “LEUKOCYTE COUNT” value [4] was 14.5 x10E3/uL and the LYMPHOCYTE [4] was 86.67%. The “MEAN CORPUSCULAR HEMOGLOBIN” value [4] was 24.07 pg, the “MEAN CORPUSCULAR HEMOGLOBIN CONCENTRATION” value [4] was 40.13 G/DL and the “MEAN CORPUSCULAR VOLUME” value [4] was 60.03 fL. The MONOCYTE [4] was 0.67%, the NEUTROPHIL [4] was 12% and the “NUCLEATED RED BLOOD CELLS” value [4] was 0 /100WBC. For the same molecule, the “PLATELET COUNT” value [4] was 1313.67 x10E3/uL, the “ALANINE AMINOTRANSFERASE” value [4] was 73.67 u/L and the ALBUMIN [4] was 3.63 G/DL. For the same molecule, the “ALKALINE PHOSPHATASE” value [4] was 318 u/L, the “ASPARTATE AMINOTRANSFERASE” value [4] was 113.67 u/L and the “BLOOD UREA NITROGEN” value [4] was 18 mg/dL. The “CARBON DIOXIDE” value [4] was 29.33 mmol/L, the CHLORIDE [4] was 98.67 MEQ/L and the CHOLESTEROL [4] was 97.33 mg/dL. The “CREATINE PHOSPHOKINASE” value [4] was 403.33 u/L, the CREATININE [4] was 0.19 mg/dL and the GLUCOSE [4] was 144 mg/dL. For the same molecule, the “LACTATE DEHYDROGENASE” value [4] was 612.33 u/L, the LIPASE [4] was 10.67 u/L and the PHOSPHORUS [4] was 13.33 mg/dL. For the same molecule, the POTASSIUM [4] was 5 MEQ/L, the SODIUM [4] was 136.53 MEQ/L and the “TOTAL BILIRUBIN” value [4] was 0.1 mg/dL. The “TOTAL PROTEIN” value [4] was 5.57 G/DL and the “URIC ACID” value [4] was 1.7 mg/dL.
